Paper PMC2931818 (Anti-cancer drugs, 2010)

How the values were obtained:
[1] = 5-FU plasma concentration at steady state during 46-h infusion; assay type: in vivo, human; details: cycle 2; 2400 mg/m^2 46-h continuous infusion
[2] = test system: P450; details: cited from earlier work
[3] = test system: cells that have acquired resistance related to P-glycoprotein; details: cited from earlier work
[4] = test system: HCT-116 colon, SCC-25 tongue, A427 NSCL and J82 human carcinoma cell lines; details: variety of cell lines (e.g. colon, non-small cell, lung, tongue and bladder); cited from earlier work
[5] = test system: liver micrometastases; details: mice; cited from earlier work
[6] = Edotecarin plasma pharmacokinetics in cancer patients after 1-h IV infusion; assay type: in vivo, human; details: for AUC (0-inf) / AUC (0–24): 6 mg/m^2 dose only; for AUC (0-inf) / AUC (0–24) / CL (total body-clearance) / T (terminal half-life) / Vss / Dose normalized AUC (0-inf) / Dose normalized AUC (0–24) / Dose normalized Cmax / half-life / Tmax: mean ± SD; for Dose normalized AUC (0-inf) / Dose normalized AUC (0–24) / Dose normalized Cmax: normalized to a 1 mg/m^2 dose; for half-life / Tmax: human, plasma, intravenous; for half-life: T (terminal half-life)
[7] = test system: human CRC model (HCT-116); details: no added toxicity; cited from earlier work
[8] = test system: advanced/metastatic solid tumors; test: Tumor response by Response Evaluation Criteria in Solid Tumors; assay type: in vivo, human; details: 14 treated patients, edotecarin/5-FU/LV
[9] = test system: topoisomerase I (Topo I); details: cited from earlier work
[10] = test system: patients with solid tumors; details: single agent, cited from earlier work
[11] = test system: patients with advanced/metastatic solid tumors
[12] = test system: irinotecan-naïve patients with CRC; details: single agent 13 mg/m^2, cited from earlier work
[13] = all 14 patients, all cycles, edotecarin with 5-FU/LV

O=c1[nH]cc(F)c(=O)[nH]1 [5-FU, 5-fluorouracil]
average concentration obtained at steady state [1]: 455.9 ± 222.8 ng/mL

O=C1c2c(c3c4ccc(O)cc4n([C@@H]4O[C@H](CO)[C@@H](O)[C@H](O)[C@H]4O)c3c3[nH]c4cc(O)ccc4c23)C(=O)N1NC(CO)CO [Edotecarin, 6–N-(1-hydroxymethyla-2-hydroxyl) ethylamino-12,13-dihydro-13-(beta-D-glucopyranosyl)-5Hindolo(2,3-a)-pyrrolo(3,4-c)-carbazole-5,7(6H)-dione]
formation of active metabolites [2]: does not form any active metabolites | substrate for in vitro P450-mediated metabolism [2]: is not a substrate | activity on P-glycoprotein-related resistant cells [3]: effective | effect of the combination of edotecarin with 5-FU [4]: additive effect | inhibition of proliferation of liver micrometastases [5]: highly effective | AUC (0-inf) ([6]; cycle 1): 124.5 ± 34.7 ng/h/mL | AUC (0–24) ([6]; cycle 1): 91.0 ± 21.6 ng/h/mL | CL (total body-clearance) ([6]; cycle 1): 51.3 ± 12.4 l/h/m^2 | T (terminal half-life) ([6]; cycle 1): 25.3 ± 6.4 h | Vss ([6]; cycle 1): 884.4 ± 296.0 l/m^2 | Dose normalized AUC (0-inf) ([6]; cycle 1): 20.7 ± 5.4 ng/h/mL | Dose normalized AUC (0–24) ([6]; cycle 1): 15.3 ± 3.6 h/ng/mL | Dose normalized Cmax ([6]; cycle 1): 13.2 ± 2.9 ng/mL | AUC (0-inf) ([6]; cycle 2): 91.7 ± 31.9 ng/h/mL | AUC (0–24) ([6]; cycle 2): 65.3 ± 22.9 ng/h/mL | CL (total body-clearance) ([6]; cycle 2): 73.3± 29.7 l/h/m^2 | T (terminal half-life) ([6]; cycle 2): 20.3 ± 4.2 h | Vss ([6]; cycle 2): 1408.7± 999.7 l/m^2 | Dose normalized AUC (0-inf) ([6]; cycle 2): 15.4 ± 5.1 ng/h/mL | Dose normalized AUC (0–24) ([6]; cycle 2): 11.1 ± 3.7 h/ng/mL | Dose normalized Cmax ([6]; cycle 2): 10.1 ± 4.4 ng/mL | half-life ([6]; cycle 1): ~25 h | half-life ([6]; cycle 2): ~20 h | Tmax ([6]; cycle 1): 0.48 ± 0.22 h | Tmax ([6]; cycle 2): 0.83 h | disposition after completion of the IV administration ([6]; very rapid initial decline then much slower reduction in plasma concentrations): bi-exponential disposition | efficacy in combination with 5-FU (concurrent treatment) [7]: efficacy superior in combination than with the drugs as single agents | patients with progressive disease as best overall response [8]: six patients | patients with stable disease as best overall response [8]: seven patients | patients with complete response as best overall response ([8]; patient with HCC, confirmed by cycle 5): one patient | induction of single-strand DNA cleavage ([9]; at different DNA sequences): more effectively than NB-506 or camptothecin | stability of induced DNA-Topo I complexes [9]: more stable than those occurring after exposure to camptothecin or NB-506 | recommended dose for phase II studies ([10]; 3-week schedule with 1 week permitted for recovery): 13 mg/m^2 | recommended phase II dose ([10]; once every 21 days, ref Hurwitz et al. [8]): 13 mg/m^2 | patients with DLT (grade 3 neutropenia not recovered to grade 1 by day 21) ([11]; 6 mg/m^2 edotecarin cohort without 5-FU bolus, expanded to five patients): one patient | patients with grade 4 neutropenia (DLT) ([11]; 8 mg/m^2 edotecarin cohort, no 5-FU bolus, two of the three patients): 66% | deaths within 30 days of the last treatment dose ([11]; 14 patients): No patients died | patients discontinued from the study because of adverse events (neutropenia) ([11]; 14 patients, 90 cycles): four patients | patients with dose reductions because of AEs (neutropenia) ([11]; 14 patients, 90 cycles): three patients | patients with serious adverse events ([11]; 14 patients, 90 cycles, two treatment-related, two unrelated): four patients | patients with fatigue (AE overall) [11, 13]: 64% | patients with neutropenia (AE overall) [11, 13]: 57% | patients with pyrexia (AE overall) [11, 13]: 50% | patients with vomiting (AE overall) [11, 13]: 42% | patients with fatigue during cycle 1 ([11]; all 14 patients, cycle 1): 35% | patients with nausea during cycle 1 ([11]; all 14 patients, cycle 1): 50% | patients with neutropenia during cycle 1 ([11]; all 14 patients, cycle 1): 50% | changes in clinical laboratory parameters, vital signs measurements, or ECG results ([11]; edotecarin with 5-FU/LV): No clinically important treatment-related changes | gastrointestinal toxicities, especially diarrhea ([11]; edotecarin with 5-FU/LV, in general): minimal | maximum tolerated dose ([11]; edotecarin with infusional 5-FU/LV every 2 weeks, only 6 and 8 mg/m^2 explored): no maximum tolerated dose was declared | patients with stable disease (including four minor responses) ([12]; 24 patients, 13 patients): 57% | patients with partial response ([12]; 24 patients, three patients): 13% | median time to tumor progression [12]: 7.1 months | patients with grade 3/4 febrile neutropenia ([12]; one patient): 4.2%
